Experimental data published in patent US9023789B2, “Amylin analogs and pharmaceutical compositions thereof” (Novo Nordisk A/S, priority 2012, dated 2015).
In brackets after ≈: the same amount, converted by molar mass. Where two headings read alike, the source gives them in different places. Numbered stars: 1 amine (or outer) side, 2 acyl side, 3 side chain; on linkers, the order of the positions; unused ones are H or OH. Bridge positions count the residues as written; N and C are the ends. Side chains are listed from the residue outwards. Peptide text beside a SMILES is read from it. * marks the point of attachment. C20 diacid = O=C(O)CCCCCCCCCCCCCCCCCCC(=O)*; γGlu = O=C(O)[C@H](CCC(=O)[*:2])N[*:1]; AEEA = NCCOCCOCC(=O)O

What was measured:
[1] = test system: Sprague Dawley (SD) rats; assay: ASSAY (I) efficacy testing on appetite (food intake) using an ad libitum fed rat model; type: in vivo; details: rat, 30 nmol/kg
Method in brief: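 Individual food consumption was logged each hour up to 7 h and again at 24 h, occasionally 48 h, with Grubbs-test outliers removed. Each 200–250 g Sprague Dawley rat, free-feeding in its home cage under reversed lighting, received a single ip, po or sc dose of 0.01–3 mg/kg at lights-off, alongside a vehicle group.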

[2] = ASSAY (IV) determination of solubility; type: physicochemical
Method in brief: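 UPLC read-out of polypeptide concentration after centrifugation. Samples: aqueous polypeptide stock ([…]) + 100 mM buffer 1:1, glycylglycine pH 3.0–5.0 or bistrispropane pH 6.0–8.0; 18 h, RT.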

[3] = ASSAY (III) ThT fibrillation assay for physical stability; type: physicochemical
Method in brief: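 Physical stability scored by ThT fluorescence (444 nm excitation, 485 nm emission) tracked every 20 min during 37 °C incubation with 960 rpm shaking, ThT at 1 μM final. Values are replicate means with SD at chosen times; HPLC against pramlintide standard gives initial and post-assay soluble concentrations.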

[4] = bistrispropane buffer, pH 6.5, read-out: Solubility pH 6.5 Concentration
[5] = bistrispropane buffer, pH 7.5, read-out: Solubility pH 7.5 Concentration
[6] = bistrispropane buffer, pH 6.0, read-out: Solubility pH 6.0 Concentration
[7] = bistrispropane buffer, pH 7.0, read-out: Solubility pH 7.0 Concentration
[8] = bistrispropane buffer, pH 8.0, read-out: Solubility pH 8.0 Concentration
[9] = glycylglycine buffer, pH 3.0, read-out: Solubility pH 3.0 Concentration
[10] = glycylglycine buffer, pH 4.0, read-out: Solubility pH 4.0 Concentration
[11] = glycylglycine buffer, pH 5.0, read-out: Solubility pH 5.0 Concentration

CC[C@H](C)[C@H](NC(=O)[C@H](C)NC(=O)CNC(=O)[C@H](Cc1ccccc1)NC(=O)[C@H](CC(N)=O)NC(=O)[C@@H]1CCCN1C(=O)[C@H](CO)NC(=O)[C@H](CO)NC(=O)[C@H](Cc1c[nH]cn1)NC(=O)[C@H](CCCNC(=N)N)NC(=O)[C@H](CC(C)C)NC(=O)[C@H](Cc1ccccc1)NC(=O)[C@H](Cc1c[nH]cn1)NC(=O)[C@H](C)NC(=O)[C@H](CC(C)C)NC(=O)[C@H](CCCNC(=N)N)NC(=O)[C@H](CCC(N)=O)NC(=O)[C@@H](NC(=O)[C@H](C)NC(=O)[C@@H]1CSSC[C@H](NC(=O)[C@@H](N)CCCCNC(=O)CC[C@H](NC(=O)CCCCCCCCCCCCCCCCCCC(=O)O)C(=O)O)C(=O)N[C@@H](CC(N)=O)C(=O)N[C@@H]([C@@H](C)O)C(=O)N[C@@H](C)C(=O)N[C@@H]([C@@H](C)O)C(=O)N1)[C@@H](C)O)C(=O)N1CCC[C@H]1C(=O)N[C@@H](CO)C(=O)N[C@@H](CO)C(=O)N[C@H](C(=O)N[C@@H](CC(N)=O)C(=O)N[C@H](C(=O)NCC(=O)N[C@@H](Cc1c[nH]cn1)C(=O)N[C@@H](CC(N)=O)C(=O)N[C@H](C(=O)N[C@@H](Cc1ccc(O)cc1)C(N)=O)[C@@H](C)O)C(C)C)[C@@H](C)O [Example 81] (H-K([γGlu-C20 diacid])CNTATCATQRLAHFLRHSSPNFGAIPSSTNVGHNTY-NH2; disulfide 2-7; N-terminus assumed)
Food intake reduction 0-24 h 30 nmol/kg (%) [1]: 40%
Food intake reduction 24-48 h 30 nmol/kg (%) [1]: 3%
solubility at 18 h [2, 4]: ≥ 200 µM
solubility at 18 h [2, 5]: ≥ 200 µM
solubility at 18 h [2, 6]: ≥ 200 µM
solubility at 18 h [2, 7]: ≥ 200 µM
solubility at 18 h [2, 8]: ≥ 200 µM
solubility at 18 h [2, 9]: ≥ 200 µM
solubility at 18 h [2, 10]: ≥ 200 µM
solubility at 18 h [2, 11]: ≥ 200 µM
ThT pH 4.0 lag time (h) [3]: 45 h

CC[C@H](C)[C@H](NC(=O)[C@H](C)NC(=O)CNC(=O)[C@H](Cc1ccccc1)NC(=O)[C@H](CC(N)=O)NC(=O)[C@@H]1CCCN1C(=O)[C@H](CO)NC(=O)[C@H](CO)NC(=O)[C@H](Cc1c[nH]cn1)NC(=O)[C@H](CCCNC(=N)N)NC(=O)[C@H](CC(C)C)NC(=O)[C@H](Cc1ccccc1)NC(=O)[C@H](Cc1c[nH]cn1)NC(=O)[C@H](C)NC(=O)[C@H](CC(C)C)NC(=O)[C@H](CCCNC(=N)N)NC(=O)[C@H](CCC(N)=O)NC(=O)[C@@H](NC(=O)[C@H](C)NC(=O)[C@@H]1CSSC[C@H](NC(=O)[C@@H](N)CCCCNC(=O)COCCOCCNC(=O)CC[C@H](NC(=O)CCCCCCCCCCCCCCCCCCC(=O)O)C(=O)O)C(=O)N[C@@H](CC(N)=O)C(=O)N[C@@H]([C@@H](C)O)C(=O)N[C@@H](C)C(=O)N[C@@H]([C@@H](C)O)C(=O)N1)[C@@H](C)O)C(=O)N1CCC[C@H]1C(=O)N[C@@H](CO)C(=O)N[C@@H](CO)C(=O)N[C@H](C(=O)N[C@@H](CC(N)=O)C(=O)N[C@H](C(=O)NCC(=O)N[C@@H](CCCNC(=N)N)C(=O)N[C@@H](CC(N)=O)C(=O)N[C@H](C(=O)N[C@@H](Cc1ccc(O)cc1)C(N)=O)[C@@H](C)O)C(C)C)[C@@H](C)O [Example 84] (H-K([AEEA-γGlu-C20 diacid])CNTATCATQRLAHFLRHSSPNFGAIPSSTNVGRNTY-NH2; disulfide 2-7 (inferred); N-terminus assumed)
Food intake reduction 0-24 h 30 nmol/kg (%) [1]: 10%
Food intake reduction 24-48 h 30 nmol/kg (%) [1]: 0%
solubility at 18 h [2, 4]: ≥ 200 µM
solubility at 18 h [2, 5]: ≥ 200 µM
solubility at 18 h [2, 6]: ≥ 200 µM
solubility at 18 h [2, 7]: ≥ 200 µM
solubility at 18 h [2, 8]: ≥ 200 µM
solubility at 18 h [2, 9]: ≥ 200 µM
solubility at 18 h [2, 10]: ≥ 200 µM
solubility at 18 h [2, 11]: ≥ 200 µM
ThT pH 4.0 lag time (h) [3]: 45 h

CC[C@H](C)[C@H](NC(=O)[C@H](C)NC(=O)CNC(=O)[C@H](Cc1ccccc1)NC(=O)[C@H](CC(N)=O)NC(=O)[C@@H]1CCCN1C(=O)[C@H](CO)NC(=O)[C@H](CO)NC(=O)[C@H](Cc1c[nH]cn1)NC(=O)[C@H](CCCNC(=N)N)NC(=O)[C@H](CC(C)C)NC(=O)[C@H](Cc1ccccc1)NC(=O)[C@H](Cc1c[nH]cn1)NC(=O)[C@H](C)NC(=O)[C@H](CC(C)C)NC(=O)[C@H](CCCNC(=N)N)NC(=O)[C@H](CCC(N)=O)NC(=O)[C@@H](NC(=O)[C@H](C)NC(=O)[C@@H]1CSSC[C@H](NC(=O)[C@@H](N)CCCCNC(=O)CC[C@H](NC(=O)CCCCCCCCCCCCCCCCCCC(=O)O)C(=O)O)C(=O)N[C@@H](CC(N)=O)C(=O)N[C@@H]([C@@H](C)O)C(=O)N[C@@H](C)C(=O)N[C@@H]([C@@H](C)O)C(=O)N1)[C@@H](C)O)C(=O)N1CCC[C@H]1C(=O)N[C@@H](CO)C(=O)N[C@@H](CO)C(=O)N[C@H](C(=O)N[C@@H](CC(N)=O)C(=O)N[C@H](C(=O)NCC(=O)N[C@@H](CCCNC(=N)N)C(=O)N[C@@H](CC(N)=O)C(=O)N[C@H](C(=O)N[C@@H](Cc1ccc(O)cc1)C(N)=O)[C@@H](C)O)C(C)C)[C@@H](C)O [Example 85] (H-K([γGlu-C20 diacid])CNTATCATQRLAHFLRHSSPNFGAIPSSTNVGRNTY-NH2; disulfide 2-7 (inferred); N-terminus assumed)
Food intake reduction 0-24 h 30 nmol/kg (%) [1]: 30%
Food intake reduction 24-48 h 30 nmol/kg (%) [1]: 6%
solubility at 18 h [2, 4]: ≥ 200 µM
solubility at 18 h [2, 5]: ≥ 200 µM
solubility at 18 h [2, 6]: ≥ 200 µM
solubility at 18 h [2, 7]: ≥ 200 µM
solubility at 18 h [2, 8]: ≥ 200 µM
solubility at 18 h [2, 9]: ≥ 200 µM
solubility at 18 h [2, 10]: ≥ 200 µM
solubility at 18 h [2, 11]: ≥ 200 µM
ThT pH 4.0 lag time (h) [3]: 45 h

CC[C@H](C)[C@H](NC(=O)[C@H](C)NC(=O)CNC(=O)[C@H](Cc1ccccc1)NC(=O)[C@H](CC(N)=O)NC(=O)[C@@H]1CCCN1C(=O)[C@H](CO)NC(=O)[C@H](CO)NC(=O)[C@H](Cc1c[nH]cn1)NC(=O)[C@H](CCCNC(=N)N)NC(=O)[C@H](CC(C)C)NC(=O)[C@H](Cc1ccccc1)NC(=O)[C@H](CC(N)=O)NC(=O)[C@H](C)NC(=O)[C@H](CC(C)C)NC(=O)[C@H](CCCNC(=N)N)NC(=O)[C@H](CCC(N)=O)NC(=O)[C@@H](NC(=O)[C@H](C)NC(=O)[C@@H]1CSSC[C@H](NC(=O)[C@@H](N)CCCCNC(=O)CC[C@H](NC(=O)CC[C@H](NC(=O)CCCCCCCCCCCCCCCCCCC(=O)O)C(=O)O)C(=O)O)C(=O)N[C@@H](CC(N)=O)C(=O)N[C@@H]([C@@H](C)O)C(=O)N[C@@H](C)C(=O)N[C@@H]([C@@H](C)O)C(=O)N1)[C@@H](C)O)C(=O)N1CCC[C@H]1C(=O)N[C@@H](CO)C(=O)N[C@@H](CO)C(=O)N[C@H](C(=O)N[C@@H](CC(N)=O)C(=O)N[C@H](C(=O)NCC(=O)N[C@@H](Cc1c[nH]cn1)C(=O)N[C@@H](CC(N)=O)C(=O)N[C@H](C(=O)N[C@@H](Cc1ccc(O)cc1)C(N)=O)[C@@H](C)O)C(C)C)[C@@H](C)O [Example 86] (H-K([γGlu-γGlu-C20 diacid])CNTATCATQRLANFLRHSSPNFGAIPSSTNVGHNTY-NH2; disulfide 2-7)
Food intake reduction 0-24 h 30 nmol/kg (%) [1]: 48%
Food intake reduction 24-48 h 30 nmol/kg (%) [1]: 26%
solubility at 18 h [2, 4]: ≥ 200 µM
solubility at 18 h [2, 5]: 157 µM (≈ 716 µg/mL)
solubility at 18 h [2, 6]: ≥ 200 µM
solubility at 18 h [2, 7]: ≥ 200 µM
solubility at 18 h [2, 8]: ≥ 200 µM
solubility at 18 h [2, 9]: ≥ 200 µM
solubility at 18 h [2, 10]: ≥ 200 µM
solubility at 18 h [2, 11]: ≥ 200 µM
ThT pH 4.0 lag time (h) [3]: 32 h

CC[C@H](C)[C@H](NC(=O)[C@H](C)NC(=O)CNC(=O)[C@H](Cc1ccccc1)NC(=O)[C@H](CC(N)=O)NC(=O)[C@@H]1CCCN1C(=O)[C@H](CO)NC(=O)[C@H](CO)NC(=O)[C@H](Cc1c[nH]cn1)NC(=O)[C@H](CCCNC(=N)N)NC(=O)[C@H](CC(C)C)NC(=O)[C@H](Cc1ccccc1)NC(=O)[C@H](CCC(=O)O)NC(=O)[C@H](C)NC(=O)[C@H](CC(C)C)NC(=O)[C@H](CCCNC(=N)N)NC(=O)[C@H](CCC(N)=O)NC(=O)[C@@H](NC(=O)[C@H](C)NC(=O)[C@@H]1CSSC[C@H](NC(=O)[C@@H](N)CCCCNC(=O)CC[C@H](NC(=O)CC[C@H](NC(=O)CCCCCCCCCCCCCCCCCCC(=O)O)C(=O)O)C(=O)O)C(=O)N[C@@H](CC(N)=O)C(=O)N[C@@H]([C@@H](C)O)C(=O)N[C@@H](C)C(=O)N[C@@H]([C@@H](C)O)C(=O)N1)[C@@H](C)O)C(=O)N1CCC[C@H]1C(=O)N[C@@H](CO)C(=O)N[C@@H](CO)C(=O)N[C@H](C(=O)N[C@@H](CC(N)=O)C(=O)N[C@H](C(=O)NCC(=O)N[C@@H](Cc1c[nH]cn1)C(=O)N[C@@H](CC(N)=O)C(=O)N[C@H](C(=O)N[C@@H](Cc1ccc(O)cc1)C(N)=O)[C@@H](C)O)C(C)C)[C@@H](C)O [Example 87] (H-K([γGlu-γGlu-C20 diacid])CNTATCATQRLAEFLRHSSPNFGAIPSSTNVGHNTY-NH2; disulfide 2-7)
Food intake reduction 0-24 h 30 nmol/kg (%) [1]: 29%
Food intake reduction 24-48 h 30 nmol/kg (%) [1]: 20%
solubility at 18 h [2, 4]: 144 µM (≈ 659 µg/mL)
solubility at 18 h [2, 5]: ≥ 200 µM
solubility at 18 h [2, 6]: 156 µM (≈ 714 µg/mL)
solubility at 18 h [2, 7]: 146 µM (≈ 668 µg/mL)
solubility at 18 h [2, 8]: ≥ 200 µM
solubility at 18 h [2, 9]: ≥ 200 µM
solubility at 18 h [2, 10]: ≥ 200 µM
solubility at 18 h [2, 11]: ≥ 200 µM
ThT pH 4.0 lag time (h) [3]: 45 h
